ChEMBL document CHEMBL4373740, “Synthesis and biological evaluation of new MET inhibitors with 1,6-naphthyridinone scaffold” (Eur J Med Chem, 2020)

Experiments:
Homo sapiens = species: Homo sapiens; assay: Selectivity index, ratio of IC50 for purified recombinant VEGFR2 kinase domain (unknown origin) to IC50 for purified recombinant MET kinase domain (unknown origin)
[1] = Antiproliferative activity against human NIH-H460 cells at 10 uM incubated for 72 hrs by MTT assay relative to control; format: functional; settings: NIH-H460, 72 h
[2] = molecular target: Hepatocyte growth factor receptor (Homo sapiens, UniProt P08581); assay: Inhibition of purified recombinant MET kinase domain (unknown origin) using biotin as substrate preincubated for 5 mins followed by substrate addition and measured after 30 to 60 mins in presence of ATP by HTRF assay
Sequence of Hepatocyte growth factor receptor (P08581 whole entry, the tested form may be a part): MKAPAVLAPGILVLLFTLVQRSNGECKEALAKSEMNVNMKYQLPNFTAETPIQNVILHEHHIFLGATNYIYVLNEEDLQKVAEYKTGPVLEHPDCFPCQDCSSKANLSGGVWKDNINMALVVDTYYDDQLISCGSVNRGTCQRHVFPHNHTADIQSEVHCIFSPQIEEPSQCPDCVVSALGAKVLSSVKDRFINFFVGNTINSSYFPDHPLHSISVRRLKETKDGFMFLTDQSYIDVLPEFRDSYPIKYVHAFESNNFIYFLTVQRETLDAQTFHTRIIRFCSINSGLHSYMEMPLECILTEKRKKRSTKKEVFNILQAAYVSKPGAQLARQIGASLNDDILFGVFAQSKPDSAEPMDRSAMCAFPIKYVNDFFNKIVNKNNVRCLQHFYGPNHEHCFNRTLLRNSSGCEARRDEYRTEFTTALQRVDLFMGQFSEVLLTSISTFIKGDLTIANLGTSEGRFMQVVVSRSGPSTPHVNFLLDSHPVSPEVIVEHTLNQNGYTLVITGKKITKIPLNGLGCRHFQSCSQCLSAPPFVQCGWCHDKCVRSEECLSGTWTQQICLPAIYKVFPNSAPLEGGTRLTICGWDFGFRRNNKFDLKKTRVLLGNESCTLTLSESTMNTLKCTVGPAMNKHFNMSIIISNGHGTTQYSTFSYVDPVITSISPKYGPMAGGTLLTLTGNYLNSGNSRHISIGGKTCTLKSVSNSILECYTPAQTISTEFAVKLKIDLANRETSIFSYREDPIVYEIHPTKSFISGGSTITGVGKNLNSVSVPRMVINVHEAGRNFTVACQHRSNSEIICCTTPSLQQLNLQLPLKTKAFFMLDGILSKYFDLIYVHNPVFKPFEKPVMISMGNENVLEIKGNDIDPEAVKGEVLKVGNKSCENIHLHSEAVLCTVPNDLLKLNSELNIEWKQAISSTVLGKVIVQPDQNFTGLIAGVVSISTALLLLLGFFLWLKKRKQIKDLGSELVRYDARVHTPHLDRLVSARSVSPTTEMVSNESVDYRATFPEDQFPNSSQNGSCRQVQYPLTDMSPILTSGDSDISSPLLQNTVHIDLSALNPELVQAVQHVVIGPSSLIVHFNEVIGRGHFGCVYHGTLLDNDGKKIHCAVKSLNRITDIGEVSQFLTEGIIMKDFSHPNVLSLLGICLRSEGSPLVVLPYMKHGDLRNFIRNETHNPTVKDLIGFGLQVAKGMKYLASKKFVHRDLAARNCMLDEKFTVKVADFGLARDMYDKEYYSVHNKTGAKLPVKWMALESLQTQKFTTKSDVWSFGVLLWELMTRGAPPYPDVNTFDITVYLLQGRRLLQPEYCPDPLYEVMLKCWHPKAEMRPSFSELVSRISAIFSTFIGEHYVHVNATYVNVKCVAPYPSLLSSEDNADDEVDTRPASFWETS

HT-29 = assay: Antiproliferative activity against human HT-29 cells at 10 uM incubated for 72 hrs by MTT assay relative to control; format: functional; settings: HT-29, 72 h
[3] = molecular target: Vascular endothelial growth factor receptor 2 (Homo sapiens, UniProt P35968); assay: Inhibition of purified recombinant VEGFR2 kinase domain (unknown origin) using biotin as substrate preincubated for 5 mins followed by substrate addition and measured after 30 to 60 mins in presence of ATP by HTRF assay
Sequence of Vascular endothelial growth factor receptor 2 (P35968 whole entry, the tested form may be a part): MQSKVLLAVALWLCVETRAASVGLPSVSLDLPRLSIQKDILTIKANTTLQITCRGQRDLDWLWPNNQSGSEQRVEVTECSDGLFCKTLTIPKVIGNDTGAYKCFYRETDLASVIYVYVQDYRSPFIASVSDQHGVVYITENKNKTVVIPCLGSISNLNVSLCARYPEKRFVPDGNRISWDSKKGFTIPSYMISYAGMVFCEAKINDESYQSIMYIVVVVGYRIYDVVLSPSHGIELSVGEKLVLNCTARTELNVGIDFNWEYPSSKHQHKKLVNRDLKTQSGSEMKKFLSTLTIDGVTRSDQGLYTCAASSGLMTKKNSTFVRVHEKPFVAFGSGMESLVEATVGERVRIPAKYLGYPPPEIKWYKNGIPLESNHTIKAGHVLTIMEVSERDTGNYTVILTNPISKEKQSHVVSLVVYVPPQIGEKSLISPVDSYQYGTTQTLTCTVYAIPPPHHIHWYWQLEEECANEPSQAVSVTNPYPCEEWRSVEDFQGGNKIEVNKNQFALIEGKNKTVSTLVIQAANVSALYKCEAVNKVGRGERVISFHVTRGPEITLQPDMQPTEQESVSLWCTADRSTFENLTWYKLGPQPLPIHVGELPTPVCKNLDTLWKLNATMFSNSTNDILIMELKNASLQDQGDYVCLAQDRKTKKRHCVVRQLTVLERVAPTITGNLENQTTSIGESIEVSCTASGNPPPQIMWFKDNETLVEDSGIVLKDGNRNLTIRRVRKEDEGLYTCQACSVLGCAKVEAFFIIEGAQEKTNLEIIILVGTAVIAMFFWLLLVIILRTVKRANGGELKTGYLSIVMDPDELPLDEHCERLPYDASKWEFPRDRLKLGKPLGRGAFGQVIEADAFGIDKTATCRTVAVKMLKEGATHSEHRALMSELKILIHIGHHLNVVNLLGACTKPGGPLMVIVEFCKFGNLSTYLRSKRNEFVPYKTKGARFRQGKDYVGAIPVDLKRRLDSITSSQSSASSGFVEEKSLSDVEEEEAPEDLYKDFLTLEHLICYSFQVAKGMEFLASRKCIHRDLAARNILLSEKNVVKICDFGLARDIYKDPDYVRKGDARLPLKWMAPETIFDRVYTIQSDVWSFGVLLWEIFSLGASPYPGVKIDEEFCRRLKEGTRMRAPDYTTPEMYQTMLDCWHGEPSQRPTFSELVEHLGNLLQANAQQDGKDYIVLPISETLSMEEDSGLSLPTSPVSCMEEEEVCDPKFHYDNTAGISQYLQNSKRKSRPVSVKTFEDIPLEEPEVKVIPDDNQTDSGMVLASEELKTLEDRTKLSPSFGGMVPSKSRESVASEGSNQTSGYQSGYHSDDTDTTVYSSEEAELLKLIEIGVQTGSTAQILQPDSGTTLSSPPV

MKN-45 = assay: Antiproliferative activity against human MKN45 cells at 10 uM incubated for 72 hrs by MTT assay relative to control; format: functional; settings: MKN-45, 72 h
in vitro = settings: human, liver microsomes
[4] = Clearance in Sprague-Dawley rat at 1.0 mg/kg, iv measured for 5 min to 72 hrs by LC-MS/MS analysis; format: ADME, organism-based; settings: in vivo
[5] = AUC (0 to infinity) in Sprague-Dawley rat at 5.0 mg/kg, ig measured for 15 min to 72 hrs by LC-MS/MS analysis; format: ADME, organism-based; design: dose 5 mg/kg, time infinity, route intragastric; settings: in vivo, po
[6] = Volume of distribution in Sprague-Dawley rat at 1.0 mg/kg, iv measured for 5 min to 72 hrs by LC-MS/MS analysis; format: ADME, organism-based; settings: in vivo
[7] = Half life in Sprague-Dawley rat at 5.0 mg/kg, ig measured for 15 min to 72 hrs by LC-MS/MS analysis; format: ADME, organism-based; settings: in vivo, po
[8] = Oral bioavailability in Sprague-Dawley rat at 5.0 mg/kg, ig measured for 15 min to 72 hrs by LC-MS/MS analysis; format: ADME, organism-based; settings: in vivo
[9] = Half life in Sprague-Dawley rat at 1.0 mg/kg, iv measured for 5 min to 72 hrs by LC-MS/MS analysis; format: ADME, organism-based; settings: in vivo
[10] = Tmax in Sprague-Dawley rat at 5.0 mg/kg, ig measured for 15 min to 72 hrs by LC-MS/MS analysis; format: ADME, organism-based; settings: in vivo, po
[11] = Clearance in Sprague-Dawley rat at 5.0 mg/kg, ig measured for 15 min to 72 hrs by LC-MS/MS analysis; format: ADME, organism-based; settings: in vivo, po
[12] = Cmax in Sprague-Dawley rat at 5.0 mg/kg, ig measured for 15 min to 72 hrs by LC-MS/MS analysis; format: ADME, organism-based; design: dose 5 mg/kg, route intragastric; settings: in vivo, po
[13] = AUC (0 to infinity) in Sprague-Dawley rat at 1.0 mg/kg, iv measured for 5 min to 72 hrs by LC-MS/MS analysis; format: ADME, organism-based; design: dose 1 mg/kg, time infinity, route intravenous; settings: in vivo
[14] = Mean residence time in Sprague-Dawley rat at 1.0 mg/kg, iv measured for 5 min to 72 hrs by LC-MS/MS analysis; format: ADME, organism-based; settings: in vivo
[15] = Volume of distribution in Sprague-Dawley rat at 5.0 mg/kg, ig measured for 15 min to 72 hrs by LC-MS/MS analysis; format: ADME, organism-based; settings: in vivo, po
[16] = Mean residence time in Sprague-Dawley rat at 5.0 mg/kg, ig measured for 15 min to 72 hrs by LC-MS/MS analysis; format: ADME, organism-based; settings: in vivo, po
[17] = Cmax in Sprague-Dawley rat at 1.0 mg/kg, iv measured for 5 min to 72 hrs by LC-MS/MS analysis; format: ADME, organism-based; design: dose 1 mg/kg, route intravenous; settings: in vivo
[18] = Mean residence time in Sprague-Dawley rat at 2.5 mg/kg, iv measured for 5 min to 72 hrs by LC-MS/MS analysis; format: ADME, organism-based; settings: in vivo
[19] = Tmax in Sprague-Dawley rat at 10 mg/kg, ig measured for 15 min to 72 hrs by LC-MS/MS analysis; format: ADME, organism-based; settings: in vivo, po
[20] = Mean residence time in Sprague-Dawley rat at 10 mg/kg, ig measured for 15 min to 72 hrs by LC-MS/MS analysis; format: ADME, organism-based; settings: in vivo, po
[21] = Cmax in Sprague-Dawley rat at 10 mg/kg, ig measured for 15 min to 72 hrs by LC-MS/MS analysis; format: ADME, organism-based; design: dose 10 mg/kg, route intragastric; settings: in vivo, po
[22] = Cmax in Sprague-Dawley rat at 2.5 mg/kg, iv measured for 5 min to 72 hrs by LC-MS/MS analysis; format: ADME, organism-based; design: dose 2.5 mg/kg, route intravenous; settings: in vivo
[23] = Volume of distribution in Sprague-Dawley rat at 10 mg/kg, ig measured for 15 min to 72 hrs by LC-MS/MS analysis; format: ADME, organism-based; settings: in vivo, po
[24] = Oral bioavailability in Sprague-Dawley rat at 10 mg/kg, ig measured for 15 min to 72 hrs by LC-MS/MS analysis; format: ADME, organism-based; settings: in vivo
[25] = Tmax in Sprague-Dawley rat at 2.5 mg/kg, iv measured for 5 min to 72 hrs by LC-MS/MS analysis; format: ADME, organism-based; settings: in vivo
[26] = AUC (0 to infinity) in Sprague-Dawley rat at 10 mg/kg, ig measured for 15 min to 72 hrs by LC-MS/MS analysis; format: ADME, organism-based; design: dose 10 mg/kg, time infinity, route intragastric; settings: in vivo, po
[27] = Half life in Sprague-Dawley rat at 10 mg/kg, ig measured for 15 min to 72 hrs by LC-MS/MS analysis; format: ADME, organism-based; settings: in vivo, po
[28] = Volume of distribution in Sprague-Dawley rat at 2.5 mg/kg, iv measured for 5 min to 72 hrs by LC-MS/MS analysis; format: ADME, organism-based; settings: in vivo
[29] = Half life in Sprague-Dawley rat at 2.5 mg/kg, iv measured for 5 min to 72 hrs by LC-MS/MS analysis; format: ADME, organism-based; settings: in vivo
[30] = AUC (0 to infinity) in Sprague-Dawley rat at 2.5 mg/kg, iv measured for 5 min to 72 hrs by LC-MS/MS analysis; format: ADME, organism-based; design: dose 2.5 mg/kg, route intravenous, time infinity; settings: in vivo
[31] = Clearance in Sprague-Dawley rat at 10 mg/kg, ig measured for 15 min to 72 hrs by LC-MS/MS analysis; format: ADME, organism-based; settings: in vivo, po
[32] = Clearance in Sprague-Dawley rat at 2.5 mg/kg, iv measured for 5 min to 72 hrs by LC-MS/MS analysis; format: ADME, organism-based; settings: in vivo

Compound | IC50 [2] [nM] | IC50 [3] [nM] | half-life (in vitro) [h] | inhibition at 10 µM [1] [%] | inhibition at 10 µM (HT-29) [%] | inhibition at 10 µM (MKN-45) [%] | other results
CC(C)(C)C(=O)Nc1cc(Oc2ccc(Nc3nccc4[nH]cc(-c5ccc(F)cc5)c(=O)c34)cc2F)ccn1 | 28.1 | > 3000 | – | 56.7 | -45.8 | 62.5 | Ratio IC50 (Homo sapiens): > 107
CC(C)(O)C(=O)Nc1cc(Oc2ccc(Nc3nccc4[nH]cc(-c5ccc(F)cc5)c(=O)c34)cc2F)ccn1 | 35 | > 3000 | – | 54.3 | -2.9 | 57.8 | Ratio IC50 (Homo sapiens): > 85.7
CC(=O)Nc1cc(Oc2ccc(Nc3nccc4[nH]cc(-c5ccc(F)cc5)c(=O)c34)cc2F)ccn1 | 21.4 | 38.1 | – | 58.2 | 36.8 | 77.1 | –
CCCC(=O)Nc1cc(Oc2ccc(Nc3nccc4[nH]cc(-c5ccc(F)cc5)c(=O)c34)cc2F)ccn1 | 14.8 | 19.4 | – | 49.7 | 23.5 | 64.6 | –
CC(C)C(=O)Nc1cc(Oc2ccc(Nc3nccc4[nH]cc(-c5ccc(F)cc5)c(=O)c34)cc2F)ccn1 | 17.7 | 230 | – | 84.6 | 83.4 | 95.4 | –
O=C(Nc1cc(Oc2ccc(Nc3nccc4c3c(=O)c(-c3ccc(F)cc3)cn4CCO)cc2F)ccn1)C1CC1 | 33.8 | 10500 | – | 52.1 | 3.5 | 41.8 | –
CCn1cc(-c2ccc(F)cc2)c(=O)c2c(Nc3ccc(Oc4ccnc(NC(=O)C5CC5)c4)c(F)c3)nccc21 | 15.6 | 1380 | – | 11 | 15.8 | 31.9 | Ratio IC50 (Homo sapiens): 88
O=C(Nc1cc(Oc2ccc(Nc3nccc4[nH]cc(-c5ccc(F)cc5)c(=O)c34)cc2F)ccn1)C1CCC1 | 24 | 61.2 | – | 43.6 | 46 | 52.8 | –
COc1cc2nccc(Oc3ccc(NC(=O)C4(C(=O)Nc5ccc(F)cc5)CC4)cc3)c2cc1OC [CABOZANTINIB] | – | – | – | 54.8 | 29 | 49.1 | –
CCCCC(=O)Nc1cc(Oc2ccc(Nc3nccc4[nH]cc(-c5ccc(F)cc5)c(=O)c34)cc2F)ccn1 | 14.7 | 26.9 | – | 71.8 | -42.2 | 62.7 | –
CC(C)(O)Cn1cc(-c2ccc(F)cc2)c(=O)c2c(Nc3ccc(Oc4ccnc(NC(=O)C5CC5)c4)c(F)c3)nccc21 | 25.9 | > 30000 | – | 67.4 | -2.6 | 44.3 | –

The remaining compounds from weak to strong by IC50 [2], led by results:

IC50 [2] [nM] | IC50 [3] [nM] | half-life (in vitro) [h] | Compound | inhibition at 10 µM [1] [%] | inhibition at 10 µM (HT-29) [%] | inhibition at 10 µM (MKN-45) [%] | other results
11.8 | 289 | 4.15 | CC(O)C(=O)Nc1cc(Oc2ccc(Nc3nccc4[nH]cc(-c5ccc(F)cc5)c(=O)c34)cc2F)ccn1 (configuration not stated) | 56 | 47.8 | 67.3 | –
9.9 | 58.9 | 7.23 | O=C(CO)Nc1cc(Oc2ccc(Nc3nccc4[nH]cc(-c5ccc(F)cc5)c(=O)c34)cc2F)ccn1 | 53.6 | 18.5 | 63 | –
9.8 | 68 | 3.16 | Nc1nccc(Oc2ccc(Nc3nccc4[nH]cc(-c5ccc(F)cc5)c(=O)c34)cc2F)c1Cl | 79.1 | 56.2 | 85.7 | MRT [18]: 0.3 h; Tmax [19]: 2.7 h; MRT [20]: 3 h; Cmax [21]: 600 ng/mL; Cmax [22]: 16400 ng/mL; Vd [23]: 7.5 L/kg; bioavailability [24]: 12%; Tmax [25]: 1.8 min; AUC(0-inf) [26]: 2200 ng·h/mL; half-life [27]: 1 h; Vd [28]: 0.4 L/kg; half-life [29]: 0.5 h; AUC(0-inf) [30]: 4500 ng·h/mL; CL/F [31]: 83.3 mL/min/kg; clearance [32]: 10 mL/min/kg
9.8 | > 3000 | 1.34 | O=C(Nc1cc(Oc2ccc(Nc3nccc4[nH]cc(-c5ccc(F)cc5)c(=O)c34)cc2F)ccn1)C1CCCCC1 | 72.1 | 8.7 | 55.2 | Ratio IC50 (Homo sapiens): > 306
8.1 | 8.8 | 13.2 | O=C(Nc1cc(Oc2ccc(Nc3nccc4[nH]cc(-c5ccc(F)cc5)c(=O)c34)cc2F)ccn1)C1CC1 | 54.6 | 25.5 | 81.8 | clearance [4]: 1.33 mL/min/kg; AUC(0-inf) [5]: 42200 ng·h/mL; Vd [6]: 0.7 L/kg; half-life [7]: 6.4 h; bioavailability [8]: 63%; half-life [9]: 6.8 h; Tmax [10]: 7.3 h; CL/F [11]: 1.67 mL/min/kg; Cmax [12]: 2700 ng/mL; AUC(0-inf) [13]: 13500 ng·h/mL; MRT [14]: 8.5 h; Vd [15]: 1.1 L/kg; MRT [16]: 11.4 h; Cmax [17]: 1900 ng/mL
4.7 | 20.2 | 2.72 | CCC(=O)Nc1cc(Oc2ccc(Nc3nccc4[nH]cc(-c5ccc(F)cc5)c(=O)c34)cc2F)ccn1 | 69.7 | 68.7 | 92.1 | –
